Tests used:
Format in all cases: in vivo
Taraxacum officinale = assay: Example 1: adjuvants alone, visual % damage, pots in glasshouse
Protocol: (§1) The effect of different adjuvants (see Table 1 below) on the growth of broadleaf weed and grass species was investigated and compared to untreated (water only) control weeds.
(§2) Plates, each with 48 pots measuring 2.7 cm diameter and 5 cm deep, were filled with TKS1 growing media (Floragard, Germany). Seeds of Taraxacum officinale, Stellaria media or Poa annua were sown on the surface (10 to 20 per pot). Plants were grown in glasshouse at a temperature of 18 to 20° C. and at 60% relative humidity.
(§3) Plants were treated 15 (Stellaria, Poa) and 34 (Taraxacum) days after sowing with 60 μl of a 1.25, 2.5, 5 and 10% (w/v) solution of adjuvant using a hand airbrush.
(§4) Visual assessment of the percentage damage to the plant was carried out 1 day and 6 days from application.
(§5) Damage was assessed as wilting, desiccation or any other kind of visual injury in comparison to the untreated control (water only).

Poa annua [1] = assay: as above
Protocol: as §1, §2, §3, §4, §5

Stellaria media [2] = assay: as above
Protocol: as §1, §2, §3, §4, §5

Poa annua [3] = assay: Example 2: alcohol ethoxylate adjuvants without glyphosate, visual % damage, tracksprayer 300 l/ha
Description: (§6) The effect of different types of alcohol ethoxylate (branched—Genapol X-series, and unbranched—Genapol O-series, differing degrees of ethoxylation, see Table 3 below for more details), on unwanted vegetation (broadleaf weed and grass species), in the absence of glyphosate, was investigated and compared to untreated (water only) control weeds.
(§7) Troughs (measuring 16 cm by 13 cm by 5 cm) were filled with local field soil. Seeds of Veronica persica, Stellaria media, Trifolium repens and Poa annua were sown 24 days before application of test samples. Plants were grown in the glasshouse at 18 to 20° C. and 60% relative humidity. Application of alcohol ethoxylate test samples was carried out using a tracksprayer, spraying at a rate of 300 l/ha. Plants were kept in glasshouse and visual assessment of the estimated percentage damage to the plant was carried out 1, 7, and 14 days from application.
as §5

Trifolium repens = assay: as above
Description: as §6, §7, §5

Veronica persica = assay: as above
Description: as §6, §7, §5

Stellaria media [4] = assay: as above
Description: as §6, §7, §5

[5] = system: broadleaf weeds and grasses; assay: Example 1: overall statement on adjuvants alone; conditions: 1 and 6 days after treatment, adjuvant alone
Protocol: as §1, §2, §3, §4, §5

Substance: Oleyl alcohol polyglycol ether with 5 moles of ethoxylation [GenapolO050]
- avg % damage 1 DAA Taraxacum officinale (Taraxacum officinale; adjuvant 1.25% w/v): 10%
- avg % damage 6 DAA Taraxacum officinale (Taraxacum officinale; adjuvant 1.25% w/v): 0%
- avg % damage 1 DAA Taraxacum officinale (Taraxacum officinale; adjuvant 2.5% w/v): 10%
- avg % damage 6 DAA Taraxacum officinale (Taraxacum officinale; adjuvant 2.5% w/v): 3%
- avg % damage 1 DAA Taraxacum officinale (Taraxacum officinale; adjuvant 5% w/v): 10%
- avg % damage 6 DAA Taraxacum officinale (Taraxacum officinale; adjuvant 5% w/v): 20%
- avg % damage 1 DAA Taraxacum officinale (Taraxacum officinale; adjuvant 10% w/v): 10%
- avg % damage 6 DAA Taraxacum officinale (Taraxacum officinale; adjuvant 10% w/v): 0%
- avg % damage 1 DAA Poa annua (Poa annua [1]; adjuvant 1.25% w/v): 0%
- avg % damage 6 DAA Poa annua (Poa annua [1]; adjuvant 1.25% w/v): 5%
- avg % damage 1 DAA Poa annua (Poa annua [1]; adjuvant 2.5% w/v): 0%
- avg % damage 6 DAA Poa annua (Poa annua [1]; adjuvant 2.5% w/v): 5%
- avg % damage 1 DAA Poa annua (Poa annua [1]; adjuvant 5% w/v): 0%
- avg % damage 6 DAA Poa annua (Poa annua [1]; adjuvant 5% w/v): 10%
- avg % damage 1 DAA Poa annua (Poa annua [1]; adjuvant 10% w/v): 0%
- avg % damage 6 DAA Poa annua (Poa annua [1]; adjuvant 10% w/v): 10%
- avg % damage 1 DAA Stellaria media (Stellaria media [2]; adjuvant 1.25% w/v): 0%
- avg % damage 6 DAA Stellaria media (Stellaria media [2]; adjuvant 1.25% w/v): 0%
- avg % damage 1 DAA Stellaria media (Stellaria media [2]; adjuvant 2.5% w/v): 10%
- avg % damage 6 DAA Stellaria media (Stellaria media [2]; adjuvant 2.5% w/v): 15%
- avg % damage 1 DAA Stellaria media (Stellaria media [2]; adjuvant 5% w/v): 15%
- avg % damage 6 DAA Stellaria media (Stellaria media [2]; adjuvant 5% w/v): 25%
- avg % damage 1 DAA Stellaria media (Stellaria media [2]; adjuvant 10% w/v): 30%
- avg % damage 6 DAA Stellaria media (Stellaria media [2]; adjuvant 10% w/v): 25%
- mean % damage 1 daa Poa annua (Poa annua [3]; adjuvant 1% w/v): 0%
- mean % damage 7 daa Poa annua (Poa annua [3]; adjuvant 1% w/v): 10%
- mean % damage 14 daa Poa annua (Poa annua [3]; adjuvant 1% w/v): 0%
- mean % damage 1 daa Poa annua (Poa annua [3]; adjuvant 1.5% w/v): 0%
- mean % damage 7 daa Poa annua (Poa annua [3]; adjuvant 1.5% w/v): 5%
- mean % damage 14 daa Poa annua (Poa annua [3]; adjuvant 1.5% w/v): 0%
- mean % damage 1 daa Poa annua (Poa annua [3]; adjuvant 2% w/v): 0%
- mean % damage 7 daa Poa annua (Poa annua [3]; adjuvant 2% w/v): 5%
- mean % damage 14 daa Poa annua (Poa annua [3]; adjuvant 2% w/v): 5%
- mean % damage 1 daa Poa annua (Poa annua [3]; adjuvant 2.5% w/v): 0%
- mean % damage 7 daa Poa annua (Poa annua [3]; adjuvant 2.5% w/v): 5%
- mean % damage 14 daa Poa annua (Poa annua [3]; adjuvant 2.5% w/v): 5%
- mean % damage 1 daa Trifolium repens (Trifolium repens; adjuvant 1% w/v): 0%
- mean % damage 7 daa Trifolium repens (Trifolium repens; adjuvant 1% w/v): 5%
- mean % damage 14 daa Trifolium repens (Trifolium repens; adjuvant 1% w/v): 0%
- mean % damage 1 daa Trifolium repens (Trifolium repens; adjuvant 1.5% w/v): 0%
- mean % damage 7 daa Trifolium repens (Trifolium repens; adjuvant 1.5% w/v): 5%
- mean % damage 14 daa Trifolium repens (Trifolium repens; adjuvant 1.5% w/v): 0%
- mean % damage 1 daa Trifolium repens (Trifolium repens; adjuvant 2% w/v): 0%
- mean % damage 7 daa Trifolium repens (Trifolium repens; adjuvant 2% w/v): 5%
- mean % damage 14 daa Trifolium repens (Trifolium repens; adjuvant 2% w/v): 0%
- mean % damage 1 daa Trifolium repens (Trifolium repens; adjuvant 2.5% w/v): 0%
- mean % damage 7 daa Trifolium repens (Trifolium repens; adjuvant 2.5% w/v): 5%
- mean % damage 14 daa Trifolium repens (Trifolium repens; adjuvant 2.5% w/v): 0%
- mean % damage 1 daa Veronica persica (Veronica persica; adjuvant 1% w/v): 0%
- mean % damage 7 daa Veronica persica (Veronica persica; adjuvant 1% w/v): 5%
- mean % damage 14 daa Veronica persica (Veronica persica; adjuvant 1% w/v): 5%
- mean % damage 1 daa Veronica persica (Veronica persica; adjuvant 1.5% w/v): 0%
- mean % damage 7 daa Veronica persica (Veronica persica; adjuvant 1.5% w/v): 10%
- mean % damage 14 daa Veronica persica (Veronica persica; adjuvant 1.5% w/v): 20%
- mean % damage 1 daa Veronica persica (Veronica persica; adjuvant 2% w/v): 0%
- mean % damage 7 daa Veronica persica (Veronica persica; adjuvant 2% w/v): 10%
- mean % damage 14 daa Veronica persica (Veronica persica; adjuvant 2% w/v): 20%
- mean % damage 1 daa Veronica persica (Veronica persica; adjuvant 2.5% w/v): 0%
- mean % damage 7 daa Veronica persica (Veronica persica; adjuvant 2.5% w/v): 20%
- mean % damage 14 daa Veronica persica (Veronica persica; adjuvant 2.5% w/v): 20%
- mean % damage 1 daa Stellaria media (Stellaria media [4]; adjuvant 1% w/v): 0%
- mean % damage 7 daa Stellaria media (Stellaria media [4]; adjuvant 1% w/v): 5%
- mean % damage 14 daa Stellaria media (Stellaria media [4]; adjuvant 1% w/v): 0%
- mean % damage 1 daa Stellaria media (Stellaria media [4]; adjuvant 1.5% w/v): 0%
- mean % damage 7 daa Stellaria media (Stellaria media [4]; adjuvant 1.5% w/v): 5%
- mean % damage 14 daa Stellaria media (Stellaria media [4]; adjuvant 1.5% w/v): 5%
- mean % damage 1 daa Stellaria media (Stellaria media [4]; adjuvant 2% w/v): 0%
- mean % damage 7 daa Stellaria media (Stellaria media [4]; adjuvant 2% w/v): 10%
- mean % damage 14 daa Stellaria media (Stellaria media [4]; adjuvant 2% w/v): 5%
- mean % damage 1 daa Stellaria media (Stellaria media [4]; adjuvant 2.5% w/v): 0%
- mean % damage 7 daa Stellaria media (Stellaria media [4]; adjuvant 2.5% w/v): 10%
- mean % damage 14 daa Stellaria media (Stellaria media [4]; adjuvant 2.5% w/v): 10%

Substance: Iso-tridecyl alcohol polyglycol ether with 15 Moles of ethoxylation [GenapolX-150]
- avg % damage 1 DAA Taraxacum officinale (Taraxacum officinale; adjuvant 1.25% w/v): 10%
- avg % damage 6 DAA Taraxacum officinale (Taraxacum officinale; adjuvant 1.25% w/v): 5%
- avg % damage 1 DAA Taraxacum officinale (Taraxacum officinale; adjuvant 2.5% w/v): 10%
- avg % damage 6 DAA Taraxacum officinale (Taraxacum officinale; adjuvant 2.5% w/v): 0%
- avg % damage 1 DAA Taraxacum officinale (Taraxacum officinale; adjuvant 5% w/v): 20%
- avg % damage 6 DAA Taraxacum officinale (Taraxacum officinale; adjuvant 5% w/v): 10%
- avg % damage 1 DAA Taraxacum officinale (Taraxacum officinale; adjuvant 10% w/v): 10%
- avg % damage 6 DAA Taraxacum officinale (Taraxacum officinale; adjuvant 10% w/v): 0%
- avg % damage 1 DAA Poa annua (Poa annua [1]; adjuvant 1.25% w/v): 0%
- avg % damage 6 DAA Poa annua (Poa annua [1]; adjuvant 1.25% w/v): 10%
- avg % damage 1 DAA Poa annua (Poa annua [1]; adjuvant 2.5% w/v): 0%
- avg % damage 6 DAA Poa annua (Poa annua [1]; adjuvant 2.5% w/v): 5%
- avg % damage 1 DAA Poa annua (Poa annua [1]; adjuvant 5% w/v): 0%
- avg % damage 6 DAA Poa annua (Poa annua [1]; adjuvant 5% w/v): 10%
- avg % damage 1 DAA Poa annua (Poa annua [1]; adjuvant 10% w/v): 0%
- avg % damage 6 DAA Poa annua (Poa annua [1]; adjuvant 10% w/v): 10%
- avg % damage 1 DAA Stellaria media (Stellaria media [2]; adjuvant 1.25% w/v): 0%
- avg % damage 6 DAA Stellaria media (Stellaria media [2]; adjuvant 1.25% w/v): 10%
- avg % damage 1 DAA Stellaria media (Stellaria media [2]; adjuvant 2.5% w/v): 0%
- avg % damage 6 DAA Stellaria media (Stellaria media [2]; adjuvant 2.5% w/v): 10%
- avg % damage 1 DAA Stellaria media (Stellaria media [2]; adjuvant 5% w/v): 15%
- avg % damage 6 DAA Stellaria media (Stellaria media [2]; adjuvant 5% w/v): 15%
- avg % damage 1 DAA Stellaria media (Stellaria media [2]; adjuvant 10% w/v): 25%
- avg % damage 6 DAA Stellaria media (Stellaria media [2]; adjuvant 10% w/v): 25%
- visual symptoms of phytotoxicity [5]: comparatively high level of visual symptoms of phytoxicity
